Measured values taken from paper PMC4789278, “Pharmacological inhibition of LSD1 for the treatment of MLL-rearranged leukemia” (Journal of Hematology & Oncology, 2016).
Like-named read-outs stand apart in the source and are kept apart here.

Legend:
Molm-13 leukemia cells [1] = assay: Antiproliferation assay (XTT), Molm-13; assay type: cell-based; conditions: Homo sapiens, MOLM-13, 360 h; 15-day treatment; MLL-rearranged leukemia; read-out: Molm-13 EC50 (antiproliferative)
Method: (§1) These compounds were incubated with a panel of six human leukemia and solid tumor cell lines, including two MLL-rearranged leukemia cells MV4-11 and Molm-13 containing fusion oncogenes MLL-AF4 and -AF9, respectively. […] Also included in the studies are breast cancer MCF-7 and prostate cancer LNCaP cells.
(§2) Proliferation inhibition assay for suspension leukemia cells was performed using an XTT assay kit (Roche) with our previously described method. Proliferation inhibition assay for solid tumor cell lines MCF-7 and LNCaP was performed using our previous described MTT assay. The antiproliferation EC50 values were determined by Prism, and the reported results were the mean values of at least three independent experiments.

[2] = test system: breast cancer MCF-7 cells; assay: Antiproliferation assay (MTT), MCF-7; assay type: cell-based; conditions: Homo sapiens, MCF7, 360 h, 15-day treatment, read-out: MCF-7 EC50 (antiproliferative)
Method: as §1, §2

[3] = test system: prostate cancer LNCaP cells; assay: Antiproliferation assay (MTT), LNCaP; assay type: cell-based; conditions: Homo sapiens, 360 h, 15-day treatment, read-out: LNCaP EC50 (antiproliferative)
Method: as §1, with “We next examined the spectrum of antitumor activity for compounds 1–4. These” for “These”, “cells. […]” for “cells.”
as §2

MV4-11 leukemia cells [4] = assay: Antiproliferation assay (XTT), MV4-11; assay type: cell-based; conditions: Homo sapiens, MV4-11, 360 h; 15-day treatment; MLL-rearranged leukemia; read-out: MV4-11 EC50 (antiproliferative)
Method: Next, these three compounds were tested for their cellular activity against proliferation of MV4-11 leukemia cells bearing MLL-AF4 fusion oncogene.
as §1, §2

human MAO-B = target: T1, human MAO-B (Homo sapiens, UniProt P27338); assay: MAO-B inhibition (MAO-Glo); assay type: biochemical
T1 construct: purchased Sigma
T1 sequence (P27338 1-520): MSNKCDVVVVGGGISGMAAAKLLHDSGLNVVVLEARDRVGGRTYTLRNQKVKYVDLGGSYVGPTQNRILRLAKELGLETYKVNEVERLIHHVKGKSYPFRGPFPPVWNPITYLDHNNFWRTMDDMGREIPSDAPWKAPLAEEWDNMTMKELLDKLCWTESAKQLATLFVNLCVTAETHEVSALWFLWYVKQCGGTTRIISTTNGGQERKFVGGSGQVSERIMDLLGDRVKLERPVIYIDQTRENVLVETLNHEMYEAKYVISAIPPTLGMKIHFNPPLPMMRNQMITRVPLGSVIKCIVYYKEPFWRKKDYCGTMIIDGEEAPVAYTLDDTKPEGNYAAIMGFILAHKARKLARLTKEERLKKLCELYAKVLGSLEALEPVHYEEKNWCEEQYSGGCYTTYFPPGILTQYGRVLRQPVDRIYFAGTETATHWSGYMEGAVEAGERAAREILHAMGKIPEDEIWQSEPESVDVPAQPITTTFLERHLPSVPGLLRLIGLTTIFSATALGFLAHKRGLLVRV
Method: (§3) Because MAO-A and -B play important roles in the degradation of neurotransmitters (e.g., serotonin and dopamine) in the central nervous system, selective inhibition for LSD1 is highly desirable.
(§4) Recombinant human MAO-A and -B were purchased from Sigma. The inhibitory activity was determined using MAO-Glo assay kit (Promega). In brief, following the manufacturer’s protocol, assays were performed in 384-well white plates (Corning) using MAO-A or -B (100 nM) with a final volume of 20 μL. Reactions were quenched after 60 min by adding reconstituted luciferin detection reagent (20 μL/well); 20 min after addition of the detection reagent, the luminescence of each well was measured using Beckman DTX-880 microplate reader. IC50 calculation was similar to that of LSD1.

U937 leukemia cells = assay: Antiproliferation assay (XTT), U937; assay type: cell-based; conditions: Homo sapiens, U-937, 360 h; 15-day treatment; non-MLL leukemia cells; read-out: U937 EC50 (antiproliferative)
Method: as §1, with “We next examined the spectrum of antitumor activity for compounds 1–4. These” for “These”, “cells. […]” for “cells.”
as §2

recombinant human LSD1 = target: T2, recombinant human LSD1 (Homo sapiens, UniProt O60341); assay: LSD1 enzyme inhibition assay (HRP/Amplex red); assay type: biochemical; conditions: for Selectivity index for LSD1: LSD1 versus MAO-A and -B
T2 construct: Human LSD1 catalytic domain (172-833) was cloned; made in house; host or cells: E. coli BL21-CodonPlus (Agilent)
Method: The LSD1 inhibition assay was performed with the reaction rate (i.e., amount of the product H2O2, Additional file 1: Figure S2) being quantitatively determined by adding horseradish peroxidase (HRP) and a HRP fluorescence substrate Amplex red.
Human LSD1 catalytic domain (172-833) was cloned and inserted into pGEX-KG vector. The correctness of insert was verified by sequencing. BL21-CodonPlus strain (Agilent) was transformed with the pGEX-KG-LSD1 plasmid and cultured at 37 °C in LB medium containing ampicillin (50 μg/mL) and chloramphenicol (34 μg/mL). Upon reaching an optical density of ~0.9 at 600 nm, LSD1 expression was induced by adding 0.2 mM isopropylthiogalactoside at 25 °C for 20 h. Cells were harvested, lysed, and centrifuged at 20,000 rpm for 20 min, and the supernatant was collected and subjected to an affinity column chromatography using the glutathione sepharose resin.
The inhibition assay for the recombinant LSD1 was performed using a published protocol, with the reaction rate (i.e., amount of the product H2O2) being quantitatively determined by adding HRP and a HRP fluorescence substrate Amplex red. […] The total volume of the reaction mixture is 60 μL. After 20 min, 60-μL solution containing HRP (0.01 unit) and Amplex red (80 μM) was added and the fluorescence of each well was determined using a Beckman DTX-880 microplate reader (excitation at 535 and emission at 595 nm). Data were imported into Prism 5.0 (GraphPad), and the IC50 values were calculated by using the sigmoidal dose response curve fitting in the software. The reported IC50s were the mean values of at least three independent experiments.

[5] = test system: human primary leukemia cells from an AML patient with MLL-ENL fusion oncogene; assay: Colony-forming assay; assay type: cell-based; conditions: 336 h, colonies counted after 14 days, read-out: colony-forming ability EC50
Method: Colony-forming assay using non-serum culture media represents a useful method to assess self-renewal capacity of stem-like cancer cells. The number of cell colonies formed in the assay reflects the proportion of stem-like cells in a given number of cancer cells. […] Human MLL-rearranged AML samples will be obtained from the Children’s Oncology Group (COG) Biopathology Center, in accordance with the IRB-approved protocol H-24170. The colony-forming assay was performed according to our previously published method. After 14 days, the colony number of each culture dish was counted and imported into Prism 5.0 and EC50 values were determined by using the sigmoidal dose response curve fitting in the software.

NB4 leukemia cells = assay: Antiproliferation assay (XTT), NB4; assay type: cell-based; conditions: Homo sapiens, 360 h; 15-day treatment; non-MLL leukemia cells; read-out: NB4 EC50 (antiproliferative)
Method: as §1, with “We next examined the spectrum of antitumor activity for compounds 1–4. These” for “These”, “cells. […]” for “cells.”
as §2

human MAO-A = target: T3, human MAO-A (Homo sapiens, UniProt P21397); assay: MAO-A inhibition (MAO-Glo); assay type: biochemical; conditions: read-out: MAO-A IC50
T3 construct: purchased Sigma
T3 sequence (P21397 1-527): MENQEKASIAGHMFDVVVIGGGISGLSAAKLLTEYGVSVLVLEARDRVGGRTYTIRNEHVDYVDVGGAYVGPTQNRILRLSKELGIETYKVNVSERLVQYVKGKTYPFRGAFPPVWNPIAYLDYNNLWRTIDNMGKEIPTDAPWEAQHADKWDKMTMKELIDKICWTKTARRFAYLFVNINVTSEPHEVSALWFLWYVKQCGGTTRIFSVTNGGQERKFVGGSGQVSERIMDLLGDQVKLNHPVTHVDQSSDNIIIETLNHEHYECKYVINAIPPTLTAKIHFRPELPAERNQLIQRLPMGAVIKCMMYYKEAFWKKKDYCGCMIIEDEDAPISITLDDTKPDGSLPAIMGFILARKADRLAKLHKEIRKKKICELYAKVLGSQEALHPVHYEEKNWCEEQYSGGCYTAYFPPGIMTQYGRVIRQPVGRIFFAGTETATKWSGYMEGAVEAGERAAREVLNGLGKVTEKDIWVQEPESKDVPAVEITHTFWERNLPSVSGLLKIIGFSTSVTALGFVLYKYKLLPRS
Method: as §3, with “The cyclopropylamine LSD1 inhibitors were generally derived from MAO-A/-B inhibitor tranylcypromine, an antidepression drug. Because” for “Because”
as §4

MV4-11 leukemia cells [6] = test system: MV4-11 leukemia cells; set-up: method as in PMID 22924785; conditions: read-out: MV4-11 proliferation EC50; cited from earlier work
Molm-13 leukemia cells [7] = test system: Molm-13 leukemia cells; set-up: method as in PMID 22924785; conditions: read-out: Molm-13 proliferation EC50; cited from earlier work
[8] = test system: H3K79 methylation in MV4-11 cells; set-up: method as in PMID 23795283; conditions: read-out: IC50 for inhibition of H3K79 methylation; cited from earlier work

Compound	EC50 (Molm-13 leukemia cells [1]) [µM]	EC50 [2] [µM]	EC50 [3] [µM]	EC50 (MV4-11 leukemia cells [4]) [µM]	IC50 (human MAO-B) [µM]	EC50 (U937 leukemia cells) [µM]	IC50 (recombinant human LSD1) [µM]	selectivity for LSD1 inhibition over MAO-A and -B (recombinant human LSD1) [fold]	Selectivity index for LSD1 (recombinant human LSD1)	EC50 [5] [µM]	EC50 (NB4 leukemia cells) [µM]	IC50 (human MAO-A) [µM]	fold less potent than compound 2 against LSD1 (recombinant human LSD1)	EC50 (MV4-11 leukemia cells [6]) [µM]	EC50 (Molm-13 leukemia cells [7]) [µM]	IC50 [8] [µM]
CN1CCN(C(=O)CNC2CC2c2ccc(Br)cc2)CC1 (centres unmarked) [Compound 3]	0.18	13.5	29.9	0.02	16.3	> 50	0.035	> 200	>208	0.48	> 50	7.3				
NC1CC1c1ccc(-c2ccc(F)nc2)cc1 (centres unmarked) [Compound 4]	12	> 50	> 50	1.4	3.1	17.5	5.3		<0.58		> 50	0.42	~ 70 fold			
CC(C)N(CCCNC(=O)Nc1ccc(C(C)(C)C)cc1)CC1OC(n2cnc3c(N)ncnc32)C(O)C1O (centres unmarked) [SYC-522]														~4	~7	~0.2
